Two compounds from US20050048508A1, “Trehalose receptor and method for detecting trehalose with the same” (KABUSHIKI KAISHA HAYASHIBARA SEIBUTSU KAGAKU KENKYUJO, priority 2002, published 2005) can be followed below.

SMILES strings stand for the structures.

The assay addresses T1, T1R2 with G protein α-subunits (α15 and α16/Z chimeric protein) (Mus musculus, UniProt Q925I4, E350G/G527D/P352R/R175Q).
T1 construct: expressed in transfected cells; host or cells: 293 cells, RCB 1637 (human embryonic kidney)
T1 sequence (Q925I4 20-843 R175Q/E350G/P352R/G527D): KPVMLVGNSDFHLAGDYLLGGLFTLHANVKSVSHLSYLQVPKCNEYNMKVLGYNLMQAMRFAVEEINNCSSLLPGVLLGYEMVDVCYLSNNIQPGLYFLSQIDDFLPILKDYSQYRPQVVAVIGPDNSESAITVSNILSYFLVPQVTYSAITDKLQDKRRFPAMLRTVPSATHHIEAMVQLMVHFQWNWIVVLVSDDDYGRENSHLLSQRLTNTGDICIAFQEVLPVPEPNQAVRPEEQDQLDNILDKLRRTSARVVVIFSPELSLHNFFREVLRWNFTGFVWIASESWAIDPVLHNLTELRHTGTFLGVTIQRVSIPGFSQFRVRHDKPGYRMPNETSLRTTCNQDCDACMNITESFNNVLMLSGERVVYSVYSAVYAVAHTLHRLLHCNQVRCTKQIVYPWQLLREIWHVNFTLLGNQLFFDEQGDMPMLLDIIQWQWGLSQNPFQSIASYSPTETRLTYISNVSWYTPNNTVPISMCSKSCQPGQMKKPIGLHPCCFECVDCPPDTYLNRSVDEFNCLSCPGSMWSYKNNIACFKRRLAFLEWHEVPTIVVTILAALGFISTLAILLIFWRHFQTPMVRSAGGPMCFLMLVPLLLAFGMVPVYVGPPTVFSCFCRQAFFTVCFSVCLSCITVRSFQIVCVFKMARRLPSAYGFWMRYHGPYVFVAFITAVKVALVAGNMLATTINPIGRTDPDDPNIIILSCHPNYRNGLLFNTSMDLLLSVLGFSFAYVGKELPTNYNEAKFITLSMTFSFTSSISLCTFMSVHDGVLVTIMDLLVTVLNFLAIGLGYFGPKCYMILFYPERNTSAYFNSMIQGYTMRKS
In words: Intracellular calcium ion assay, 293 cells coexpressing G protein α-subunits and T1R2. It is filed as cell-based. The settings on record: 293 cells: T1R2 + G protein α-subunits; 0.67 ml of 1 M saccharide solution added to 2 ml cell suspension; FLUO-4 AM. The protocol:
The coexpression vector for the G protein α-subunit α15 and the G protein α16/Z chimeric protein (hereinafter designated as “G protein α-subunits”) obtained in Example 1-3 was gene transferred to 293 cells, RCB 1637, a human embryonic kidney cell line, available from the Riken Bioresource Center, Ibaraki, Japan, by conventional lipofection. The gene transferred cells were suspended in Dulbecco's Modified Eagle's Medium (D-MEM) supplemented with 1 mg/L of “PUROMYCIN”, a trade mane of puromycin commercialized by Edge Biosystems, MD, USA, and 10% (v/v) of fetal calf serum to give a cell density of 2×10^6 cells/ml and cultured in a plastic petri dish for cell culture. […]
The captioned reactivity test was conducted according to a conventional intracellular calcium ion assay: 293 Cells prepared in Example 3, capable of coexpressing the G protein α-subunits and the sweet taste receptor(s), were cultured in a plastic petri dish for cell culture until reaching its confluent phase. […] Two milliliters of the resultant cell suspension was injected into a glass cuvette, commercialized by Hitachi, Ltd., Tokyo, Japan, and analyzed on “HITACHI 650-40”, a fluorescence spectrophotometer commercialized by Hitachi, Ltd., Tokyo, Japan. […]
(In general: Calcium assays in cells follow changes in intracellular calcium, usually with a dye or a luminescent sensor.)

Take `OC[C@H]1O[C@H](O[C@H]2O[C@H](CO)[C@@H](O)[C@H](O)[C@H]2O)[C@H](O)[C@@H](O)[C@@H]1O` [Trehalose]: the “Influx of calcium ion” value is recorded as “Negative”.

Take `OC[C@H]1O[C@@](CO)(O[C@H]2O[C@H](CO)[C@@H](O)[C@H](O)[C@H]2O)[C@@H](O)[C@@H]1O` [Sucrose, reference compound]: the “Influx of calcium ion” value was “Negative”.
